{"source": "PubChem BioAssay AID624323", "about": "(Sanford-Burnham Center for Chemical Genomics, 2012)", "tested_on": "aqueous buffer solubility, pH 5.0/6.2/7.4", "test": "aqueous buffer solubility at three pH values, ADME assay, biophysical, set 2 (AID 624323)", "conditions": "at 100 µM, stronger effect = higher value", "key": {"[1]": {"conditions": "measured here: solubility at pH 5.0"}, "[2]": {"conditions": "measured here: solubility at pH 6.2"}}, "note": "Active and inactive are the calls of the source. The rule behind the calls is not given here."}
{"compound": "N#Cc1ccccc1CSc1nc2ncc(Br)cc2[nH]1", "values": [{"measurement": "solubility", "value": "0.54 µg/mL (inactive)"}, {"measurement": "solubility", "setting": "[1]", "value": 0.42, "unit": "µg/mL"}, {"measurement": "solubility", "setting": "[2]", "value": 0.52, "unit": "µg/mL"}]}
{"compound": "c1ccc(-c2nnc(N3CCOCC3)nc2-c2ccccc2)cc1", "values": [{"measurement": "solubility", "value": "2.3 µg/mL (inactive)"}, {"measurement": "solubility", "setting": "[1]", "value": 2, "unit": "µg/mL"}, {"measurement": "solubility", "setting": "[2]", "value": 1.8, "unit": "µg/mL"}]}
{"compound": "Cc1ccc(NS(=O)(=O)c2ccc3c(c2)CCC(=O)N3)cc1C", "values": [{"measurement": "solubility", "value": 27.1, "unit": "µg/mL"}, {"measurement": "solubility", "setting": "[1]", "value": 26.2, "unit": "µg/mL"}, {"measurement": "solubility", "setting": "[2]", "value": "> 33", "unit": "µg/mL"}]}
{"compound": "COc1ccc(Sc2ccc(NC(=O)c3ccccc3Cl)cc2C#N)cc1", "values": [{"measurement": "solubility", "value": "0 µg/mL (inactive)"}, {"measurement": "solubility", "setting": "[1]", "value": 0.01, "unit": "µg/mL"}, {"measurement": "solubility", "setting": "[2]", "value": "< 0.01", "unit": "µg/mL"}]}
{"compound": "COC(=O)c1ccccc1NC(=O)c1ccc(F)cc1", "values": [{"measurement": "solubility", "value": "0.69 µg/mL (inactive)"}, {"measurement": "solubility", "setting": "[1]", "value": 0.85, "unit": "µg/mL"}, {"measurement": "solubility", "setting": "[2]", "value": 0.9, "unit": "µg/mL"}]}
{"compound": "CCCc1nc2c(=O)n(C)c(=O)nc-2n(C)n1", "values": [{"measurement": "solubility", "value": "> 23", "unit": "µg/mL"}, {"measurement": "solubility", "setting": "[1]", "value": "> 23", "unit": "µg/mL"}, {"measurement": "solubility", "setting": "[2]", "value": "> 23", "unit": "µg/mL"}]}
{"compound": "CCCN(CCC)CCNC(=O)C1CCN(Cc2nc(-c3ccc(Cl)cc3)oc2C)CC1", "values": [{"measurement": "solubility", "value": "> 46", "unit": "µg/mL"}, {"measurement": "solubility", "setting": "[1]", "value": "> 46", "unit": "µg/mL"}, {"measurement": "solubility", "setting": "[2]", "value": "> 46", "unit": "µg/mL"}]}
{"compound": "Oc1cc(O)cc(/C=C/c2ccc(O)c(O)c2)c1", "values": [{"measurement": "solubility", "value": 10.1, "unit": "µg/mL"}, {"measurement": "solubility", "setting": "[1]", "value": "> 24", "unit": "µg/mL"}, {"measurement": "solubility", "setting": "[2]", "value": "> 24", "unit": "µg/mL"}]}
{"compound": "O=S(=O)(NC1CCCCC1N1CCOCC1)c1ccc(Cl)cc1", "note": "(stereo unspecified)", "values": [{"measurement": "solubility", "value": 26.2, "unit": "µg/mL"}, {"measurement": "solubility", "setting": "[1]", "value": "> 36", "unit": "µg/mL"}, {"measurement": "solubility", "setting": "[2]", "value": "> 36", "unit": "µg/mL"}]}
{"compound": "CC(C)C(=O)NC(c1ccco1)c1ccc2cccnc2c1O", "note": "(stereo unspecified)", "values": [{"measurement": "solubility", "value": "3.3 µg/mL (inactive)"}, {"measurement": "solubility", "setting": "[1]", "value": 2.8, "unit": "µg/mL"}, {"measurement": "solubility", "setting": "[2]", "value": 2.7, "unit": "µg/mL"}]}
{"compound": "O=C(c1ccccn1)N(Cc1cccs1)C1(C(=O)NC2CCCCC2)CCCCC1", "values": [{"measurement": "solubility", "value": 22.7, "unit": "µg/mL"}, {"measurement": "solubility", "setting": "[1]", "value": 7.4, "unit": "µg/mL"}, {"measurement": "solubility", "setting": "[2]", "value": 15, "unit": "µg/mL"}]}
{"compound": "CCc1oc2ccccc2c1C(=O)c1cc(Br)c(O)c(Br)c1", "values": [{"measurement": "solubility", "value": "> 42", "unit": "µg/mL"}, {"measurement": "solubility", "setting": "[1]", "value": 0.18, "unit": "µg/mL"}, {"measurement": "solubility", "setting": "[2]", "value": 26.1, "unit": "µg/mL"}]}
{"compound": "NC(=O)C1CCN(c2nc(-c3ccc(Br)cc3)cs2)CC1", "values": [{"measurement": "solubility", "value": "0.12 µg/mL (inactive)"}, {"measurement": "solubility", "setting": "[1]", "value": 0.14, "unit": "µg/mL"}, {"measurement": "solubility", "setting": "[2]", "value": 0.14, "unit": "µg/mL"}]}
{"compound": "O=C(O)c1ccc(N2C(=O)/C(=C/c3ccc(-c4ccc([N+](=O)[O-])cc4)o3)C=C2c2ccccc2)cc1", "values": [{"measurement": "solubility", "value": "0.79 µg/mL (inactive)"}, {"measurement": "solubility", "setting": "[1]", "value": 0.59, "unit": "µg/mL"}, {"measurement": "solubility", "setting": "[2]", "value": 13.4, "unit": "µg/mL"}]}
{"compound": "COc1cccc(-c2nc(-c3ccc(NC(=O)Cc4ccccc4OC)cc3)no2)c1", "values": [{"measurement": "solubility", "value": "< 0.01 µg/mL (inactive)"}, {"measurement": "solubility", "setting": "[1]", "value": 0.09, "unit": "µg/mL"}, {"measurement": "solubility", "setting": "[2]", "value": 0.05, "unit": "µg/mL"}]}
{"compound": "COc1ccc(N(C(=O)CCl)C(C(=O)NCCc2ccccc2)c2cccs2)cc1Cl", "note": "(stereo unspecified)", "values": [{"measurement": "solubility", "value": "1.2 µg/mL (inactive)"}, {"measurement": "solubility", "setting": "[1]", "value": 0.61, "unit": "µg/mL"}, {"measurement": "solubility", "setting": "[2]", "value": 0.86, "unit": "µg/mL"}]}
{"compound": "Cc1ccccc1N1CCN(c2ncnc3c2cnn3Cc2ccc(Cl)cc2)CC1", "values": [{"measurement": "solubility", "value": "< 0.01 µg/mL (inactive)"}, {"measurement": "solubility", "setting": "[1]", "value": 0.03, "unit": "µg/mL"}, {"measurement": "solubility", "setting": "[2]", "value": "< 0.01", "unit": "µg/mL"}]}
{"compound": "COc1ccccc1N(/N=C1\\Sc2ccccc2C1=O)C(C)=O", "values": [{"measurement": "solubility", "value": "2.4 µg/mL (inactive)"}, {"measurement": "solubility", "setting": "[1]", "value": 2.4, "unit": "µg/mL"}, {"measurement": "solubility", "setting": "[2]", "value": 2.7, "unit": "µg/mL"}]}
{"compound": "O=C1NCCCc2c1oc1ccc(O)cc21", "values": [{"measurement": "solubility", "value": "> 22", "unit": "µg/mL"}, {"measurement": "solubility", "setting": "[1]", "value": "> 22", "unit": "µg/mL"}, {"measurement": "solubility", "setting": "[2]", "value": "> 22", "unit": "µg/mL"}]}
{"compound": "O=C(CCNS(=O)(=O)c1cccc2nsnc12)N1CCN(c2ccccn2)CC1", "values": [{"measurement": "solubility", "value": "> 43", "unit": "µg/mL"}, {"measurement": "solubility", "setting": "[1]", "value": 35.8, "unit": "µg/mL"}, {"measurement": "solubility", "setting": "[2]", "value": 35.5, "unit": "µg/mL"}]}
{"compound": "Cc1ccc(S(=O)(=O)NCc2ccc(C(=O)NCCN(Cc3ccccc3)C(C)C)cc2)cc1", "values": [{"measurement": "solubility", "value": 19.6, "unit": "µg/mL"}, {"measurement": "solubility", "setting": "[1]", "value": "> 47", "unit": "µg/mL"}, {"measurement": "solubility", "setting": "[2]", "value": 34.7, "unit": "µg/mL"}]}
{"compound": "Cn1nnnc1Sc1ncnc2scc(-c3ccccc3)c12", "values": [{"measurement": "solubility", "value": "3.5 µg/mL (inactive)"}, {"measurement": "solubility", "setting": "[1]", "value": 2.9, "unit": "µg/mL"}, {"measurement": "solubility", "setting": "[2]", "value": 3.1, "unit": "µg/mL"}]}
{"compound": "COc1ccc(C2c3c(ncn(CCN4CCOCC4)c3=N)Oc3ccc4ccccc4c32)cc1OC", "note": "(stereo unspecified)", "values": [{"measurement": "solubility", "value": 41.5, "unit": "µg/mL"}, {"measurement": "solubility", "setting": "[1]", "value": "> 49", "unit": "µg/mL"}, {"measurement": "solubility", "setting": "[2]", "value": 41.2, "unit": "µg/mL"}]}
{"compound": "Cc1ccc(S(=O)(=O)n2c(N)nc3ccccc32)cc1", "values": [{"measurement": "solubility", "value": "2.4 µg/mL (inactive)"}, {"measurement": "solubility", "setting": "[1]", "value": 2.3, "unit": "µg/mL"}, {"measurement": "solubility", "setting": "[2]", "value": 2.4, "unit": "µg/mL"}]}
{"compound": "Brc1cc2c(cc1C1Nc3ccccc3C3C=CCC31)OCO2", "note": "(stereo unspecified)", "values": [{"measurement": "solubility", "value": "< 0.01 µg/mL (inactive)"}, {"measurement": "solubility", "setting": "[1]", "value": "< 0.01", "unit": "µg/mL"}, {"measurement": "solubility", "setting": "[2]", "value": 0.04, "unit": "µg/mL"}]}
{"compound": "COc1ccc(CNCc2cccc3ccccc23)cc1", "values": [{"measurement": "solubility", "value": 26.2, "unit": "µg/mL"}, {"measurement": "solubility", "setting": "[1]", "value": "> 36", "unit": "µg/mL"}, {"measurement": "solubility", "setting": "[2]", "value": "> 36", "unit": "µg/mL"}]}
{"compound": "Cc1cccc(-n2cnc3cc(C(=O)N4CCCCC4)ccc32)c1", "values": [{"measurement": "solubility", "value": "> 32", "unit": "µg/mL"}, {"measurement": "solubility", "setting": "[1]", "value": "> 32", "unit": "µg/mL"}, {"measurement": "solubility", "setting": "[2]", "value": "> 32", "unit": "µg/mL"}]}
{"compound": "COc1ccc(S(=O)(=O)n2nc(OC(=O)c3ccccc3)cc2N)cc1", "values": [{"measurement": "solubility", "value": 14.9, "unit": "µg/mL"}, {"measurement": "solubility", "setting": "[1]", "value": 0.46, "unit": "µg/mL"}, {"measurement": "solubility", "setting": "[2]", "value": 2, "unit": "µg/mL"}]}
{"compound": "Cn1cnc([N+](=O)[O-])c1Sc1ncnc2nc[nH]c12", "values": [{"measurement": "solubility", "value": "> 27", "unit": "µg/mL"}, {"measurement": "solubility", "setting": "[1]", "value": "> 27", "unit": "µg/mL"}, {"measurement": "solubility", "setting": "[2]", "value": "> 27", "unit": "µg/mL"}]}
{"compound": "CN(C)c1nc(N)nc(CSc2nnnn2-c2cccc3ccccc23)n1", "values": [{"measurement": "solubility", "value": "1 µg/mL (inactive)"}, {"measurement": "solubility", "setting": "[1]", "value": 2.8, "unit": "µg/mL"}, {"measurement": "solubility", "setting": "[2]", "value": 1, "unit": "µg/mL"}]}
{"compound": "Cc1cc(C)nc(-n2nc(C)c(Sc3ccc(F)cc3)c2N)n1", "values": [{"measurement": "solubility", "value": "9.3 µg/mL (inactive)"}, {"measurement": "solubility", "setting": "[1]", "value": 5.6, "unit": "µg/mL"}, {"measurement": "solubility", "setting": "[2]", "value": 8.6, "unit": "µg/mL"}]}
{"compound": "Cc1nc(SCc2nc3ccccc3[nH]2)c2oc3ccccc3c2n1", "values": [{"measurement": "solubility", "value": "0.11 µg/mL (inactive)"}, {"measurement": "solubility", "setting": "[1]", "value": 0.26, "unit": "µg/mL"}, {"measurement": "solubility", "setting": "[2]", "value": 0.22, "unit": "µg/mL"}]}
